Measured values from ChEMBL document CHEMBL3400083, “Effect of the tyrosinase inhibitor (S)-N-trans-feruloyloctopamine from garlic skin on tyrosinase gene expression and melanine accumulation in melanoma cells” (Bioorg Med Chem Lett, 2015).
Activity calls are given as the source filed them. The rule behind the calls is not given here.

Key:
Tyrosinase [1] = molecular target: T1, Tyrosinase (Homo sapiens, UniProt P14679); assay: Inhibition of tyrosinase (unknown origin)
T1 sequence (P14679 whole entry): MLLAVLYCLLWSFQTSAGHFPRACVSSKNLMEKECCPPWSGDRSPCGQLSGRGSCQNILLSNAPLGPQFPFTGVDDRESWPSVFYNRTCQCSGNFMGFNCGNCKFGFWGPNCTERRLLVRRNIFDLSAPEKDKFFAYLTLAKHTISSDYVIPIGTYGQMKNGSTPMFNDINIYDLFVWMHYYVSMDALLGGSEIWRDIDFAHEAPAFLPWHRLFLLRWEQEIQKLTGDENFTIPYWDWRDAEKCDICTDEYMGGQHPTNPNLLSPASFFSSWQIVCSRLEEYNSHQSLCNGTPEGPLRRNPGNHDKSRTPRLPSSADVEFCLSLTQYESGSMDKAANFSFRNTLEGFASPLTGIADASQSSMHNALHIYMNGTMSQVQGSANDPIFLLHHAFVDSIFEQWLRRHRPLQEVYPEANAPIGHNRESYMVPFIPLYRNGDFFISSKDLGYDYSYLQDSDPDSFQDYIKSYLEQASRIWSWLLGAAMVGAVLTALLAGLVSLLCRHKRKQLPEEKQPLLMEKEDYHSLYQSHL

[2] = Cytotoxicity against mouse B16F10 cells assessed as cell viability at 1.5 uM after 72 hrs by MTT assay (reference value: 99.6 +/- 3.5%); assay type: cell-based, B16-F10; settings: read-out: Activity
[3] = Cytotoxicity against mouse B16F10 cells assessed as cell viability at 3 uM after 72 hrs by MTT assay (reference value: 99.6 +/- 3.5%); assay type: cell-based, B16-F10; settings: read-out: Activity
[4] = Cytotoxicity against mouse B16F10 cells assessed as cell viability at 6 uM after 72 hrs by MTT assay (reference value: 99.6 +/- 3.5%); assay type: cell-based, B16-F10; settings: read-out: Activity
[5] = Cytotoxicity against mouse B16F10 cells assessed as cell viability at 12 uM after 72 hrs by MTT assay (reference value: 99.6 +/- 3.5%); assay type: cell-based, B16-F10; settings: read-out: Activity
[6] = Cytotoxicity against mouse B16F10 cells assessed as cell viability at 24 uM after 72 hrs by MTT assay (reference value: 99.6 +/- 3.5%); assay type: cell-based, B16-F10; settings: read-out: Activity
[7] = Cytotoxicity against mouse B16F10 cells assessed as cell viability at 48 uM after 72 hrs by MTT assay (reference value: 99.6 +/- 3.5%); assay type: cell-based, B16-F10; settings: read-out: Activity
[8] = Cytotoxicity against mouse B16F10 cells assessed as cell viability at 96 uM after 72 hrs by MTT assay (reference value: 99.6 +/- 3.5%); assay type: cell-based, B16-F10; settings: read-out: Activity
[9] = molecular target: T2, Tyrosinase (Mus musculus) (UniProt P11344); assay: Inhibition of tyrosinase in mouse B16F10 cells assessed as reduction in alpha-MSH-induced melanin content at 48 uM (reference value: 98.5 +/- 4.7%); assay type: cell-based; settings: B16-F10
T2 sequence (whole entry): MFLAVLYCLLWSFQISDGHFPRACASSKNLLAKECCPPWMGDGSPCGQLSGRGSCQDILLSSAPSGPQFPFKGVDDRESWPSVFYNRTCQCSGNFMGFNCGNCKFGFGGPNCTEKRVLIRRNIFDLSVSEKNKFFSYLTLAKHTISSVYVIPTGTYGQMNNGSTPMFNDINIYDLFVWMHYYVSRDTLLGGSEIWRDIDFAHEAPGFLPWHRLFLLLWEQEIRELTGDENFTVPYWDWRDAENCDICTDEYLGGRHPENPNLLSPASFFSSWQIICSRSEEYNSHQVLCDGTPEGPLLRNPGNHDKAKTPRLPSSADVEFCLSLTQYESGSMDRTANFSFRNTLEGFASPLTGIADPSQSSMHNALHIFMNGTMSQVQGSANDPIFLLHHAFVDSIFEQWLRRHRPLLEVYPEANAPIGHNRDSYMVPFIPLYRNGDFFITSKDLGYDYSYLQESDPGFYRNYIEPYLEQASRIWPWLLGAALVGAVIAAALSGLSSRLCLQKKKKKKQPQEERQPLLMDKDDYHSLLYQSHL

[10] = molecular target: T2, Tyrosinase (Mus musculus); assay: Inhibition of tyrosinase in mouse B16F10 cells assessed as reduction in alpha-MSH-induced melanin content at 96 uM (reference value: 98.5 +/- 4.7%); assay type: cell-based; settings: B16-F10
[11] = molecular target: T2, Tyrosinase (Mus musculus); assay: (§1) Inhibition of tyrosinase in mouse B16F10 cells assessed as reduction in alpha-MSH-induced melanin content; assay type: cell-based; settings: B16-F10
Tyrosinase [12] = molecular target: T3, Tyrosinase (Mus musculus, UniProt P11344); assay: as §1; assay type: cell-based, B16-F10
T3 sequence (P11344 whole entry): T2 sequence (whole entry)

B16-F10 = assay: Inhibition of tyrosinase mRNA expression in alpha-MSH-stimulated mouse B16F10 cells at 48 to 96 uM incubated for 1 hr prior to alpha-MSH challenge measured after 24 hrs by RT-PCR analysis; assay type: functional, cell-based
[13] = Inhibition of tyrosinase protein expression in alpha-MSH-stimulated mouse B16F10 cells at 48 to 96 uM incubated for 1 hr prior to alpha-MSH challenge measured after 24 hrs by Western blotting analysis; assay type: functional, cell-based; settings: B16-F10
[14] = molecular target: T2, Tyrosinase (Mus musculus); settings: B16-F10, 100 uM
Description: Inhibition of tyrosinase in mouse B16F10 cells assessed as reduction in alpha-MSH-induced melanin content at 100 uM

Q: For `CC(C)(C)c1cc(O)ccc1O` [E319], which IC50 (Tyrosinase [1]) is on record?
A: Its IC50 is 54.2 µM.

Q: What does the source list for `COc1cc(/C=C/C(=O)NC[C@@H](O)c2ccc(O)cc2)ccc1O`?
A: viability at 72 h, 1.5 µM [2]: 102%; viability at 72 h, 3 µM [3]: 105%; viability at 72 h, 6 µM [4]: 97.8%; viability at 72 h, 12 µM [5]: 99.4%; viability at 72 h, 24 µM [6]: 98.3%; viability at 72 h, 48 µM [7]: 97.2%; viability at 72 h, 96 µM [8]: 96%; inhibition [9]: 122%; inhibition [10]: 106%; inhibition [11]: Dose-dependent effect; IC50 (Tyrosinase [12]): > 96 µM; inhibition (B16-F10): Active; inhibition [13]: Active

Q: With `OC[C@H]1O[C@@H](Oc2ccc(O)cc2)[C@H](O)[C@@H](O)[C@@H]1O` as the compound, how does the inhibition [14] read?
A: Its inhibition is 146%.
